Data: PubChem BioAssay AID328 (DTP/NCI, 2004)
Where “and” joins values, the source holds several entries; their conditions need not be identical. Equal values may be shown once. Inconclusive results and toxic doses are left out. Rule for the calls: active = survival T/C of 150% or more; inactive = T/C below 125% in these data. Residues, ends and D or L forms follow the SMILES beside them. *: point of attachment. Cbz = O=C(OCc1ccccc1)*; OtBu = CC(C)(C)O*

Test system: BDF1 mice, P388 leukemia ip, median survival T/C
Assay: NCI In Vivo Anticancer Drug Screen. Data for tumor model P388 Leukemia (intraperitoneal) in B6D2F1 (BDF1) mice
Details: endpoint: median survival time, higher = longer survival
Method in brief: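 Steps: implant the tumour, treat one group with compound and another with vehicle, record survival, then divide treated by control.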

[1] = dose: 100.0 mg/kg/injection, schedule: Q01DX009 (ip), vehicle: saline with Tween-80
[2] = dose: 100.0 mg/kg/injection, schedule: Q04DX003 (ip), vehicle: saline with Tween-80
[3] = dose: 200.0 mg/kg/injection, schedule: Q01DX009 (ip), vehicle: saline with Tween-80
[4] = dose: 200.0 mg/kg/injection, schedule: Q04DX003 (ip), vehicle: saline with Tween-80
[5] = dose: 400.0 mg/kg/injection, schedule: Q01DX009 (ip), vehicle: saline with Tween-80
[6] = dose: 400.0 mg/kg/injection, schedule: Q04DX003 (ip), vehicle: saline with Tween-80
[7] = dose: 50.0 mg/kg/injection, schedule: Q01DX009 (ip), vehicle: saline with Tween-80
[8] = dose: 100.0 mg/kg/injection, schedule: Q01DX009 (ip), vehicle: Klucel (hydroxypropylcellulose) (HPC)
[9] = dose: 200.0 mg/kg/injection, schedule: Q01DX009 (ip), vehicle: Klucel (hydroxypropylcellulose) (HPC)

Measured: T/C

O=C(O)CC1(c2cccc3ccccc23)OC(=O)c2ccccc21 (centres undefined)
inactive: dose: 100.0 mg/kg/injection, schedule: Q01DX001 (ip), vehicle: saline with Tween-80 112 % of control | dose: 200.0 mg/kg/injection, schedule: Q01DX001 (ip), vehicle: saline with Tween-80 88 % of control | dose: 400.0 mg/kg/injection, schedule: Q01DX001 (ip), vehicle: saline with Tween-80 97 % of control

c1ccc2cc3c(cc2c1)Nc1cc2ccccc2cc1N3
inactive: [1] 96 % of control | [2] 100 % of control | [3] 103 % of control | [4] 100 % of control | [5] 100 % of control | [6] 108 % of control

CCOC(=O)c1ccc(NS(=O)c2ccccc2)cc1 (centres undefined)
inactive: [7] 100 % of control | [1] 93 % of control | [3] 111 % of control

COC1C(OC(N)=O)C(O)C(Oc2ccc3c(O)c(NC(=O)c4ccc(O)c(CC=C(C)C)c4)c(=O)oc3c2C)OC1(C)C (centres undefined)
inactive: dose: 50.0 mg/kg/injection, schedule: Q01DX009 (ip), vehicle: Klucel (hydroxypropylcellulose) (HPC) 121 % of control | [8] 111 % of control | [9] 121 % of control

COc1ccc2c(c1)C(Cc1ccc(Oc3ccc(CC4c5cc(OC)ccc5CC[N+]4(C)C)cc3)cc1)[N+](C)(C)CC2 (centres undefined)
inactive: dose: 0.1 mg/kg/injection, schedule: Q04DX003 (ip), vehicle: saline 104 % of control | dose: 0.2 mg/kg/injection, schedule: Q04DX003 (ip), vehicle: saline 100 % of control | dose: 0.39 mg/kg/injection, schedule: Q04DX003 (ip), vehicle: saline with Tween-80 93 % of control | dose: 0.4 mg/kg/injection, schedule: Q04DX003 (ip), vehicle: saline 96 % of control

FC(F)(F)c1ccc2nc(CI)c(CI)nc2c1
inactive: dose: 1.37 mg/kg/injection, schedule: Q01DX009 (ip), vehicle: saline 115 % of control | dose: 1.5 mg/kg/injection, schedule: Q01DX009 (ip), vehicle: Klucel (hydroxypropylcellulose) (HPC) 105 % of control | dose: 2.05 mg/kg/injection, schedule: Q01DX009 (ip), vehicle: saline 115 % of control | dose: 3.0 mg/kg/injection, schedule: Q01DX009 (ip), vehicle: Klucel (hydroxypropylcellulose) (HPC) 105 % of control | dose: 6.0 mg/kg/injection, schedule: Q01DX009 (ip), vehicle: Klucel (hydroxypropylcellulose) (HPC) 111 % of control | dose: 12.0 mg/kg/injection, schedule: Q01DX009 (ip), vehicle: Klucel (hydroxypropylcellulose) (HPC) 122 % of control | dose: 12.0 mg/kg/injection, schedule: Q01DX009 (ip), vehicle: saline 105 % of control | dose: 12.0 mg/kg/injection, schedule: Q04DX003 (ip), vehicle: Klucel (hydroxypropylcellulose) (HPC) 118 % of control | dose: 12.5 mg/kg/injection, schedule: Q01DX009 (ip), vehicle: saline with Tween-80 105 % of control | dose: 18.0 mg/kg/injection, schedule: Q01DX009 (ip), vehicle: saline 100 % of control | dose: 24.0 mg/kg/injection, schedule: Q01DX009 (ip), vehicle: Klucel (hydroxypropylcellulose) (HPC) 122 % of control | dose: 25.0 mg/kg/injection, schedule: Q04DX003 (ip), vehicle: Klucel (hydroxypropylcellulose) (HPC) 109 % of control | dose: 27.0 mg/kg/injection, schedule: Q01DX009 (ip), vehicle: saline 105 % of control | dose: 28.0 mg/kg/injection, schedule: Q01DX009 (ip), vehicle: saline 100 % of control | dose: 40.0 mg/kg/injection, schedule: Q01DX009 (ip), vehicle: saline 89 % of control | dose: 48.0 mg/kg/injection, schedule: Q01DX009 (ip), vehicle: Klucel (hydroxypropylcellulose) (HPC) 122 % of control

O=C(Cc1ccccc1)OCC#CC#CCOC(=O)Cc1ccccc1
inactive: [8] 100 % of control | dose: 100.0 mg/kg/injection, schedule: Q04DX003 (ip), vehicle: Klucel (hydroxypropylcellulose) (HPC) 90 % of control | [9] 104 % of control | dose: 200.0 mg/kg/injection, schedule: Q04DX003 (ip), vehicle: Klucel (hydroxypropylcellulose) (HPC) 104 % of control | dose: 400.0 mg/kg/injection, schedule: Q01DX009 (ip), vehicle: Klucel (hydroxypropylcellulose) (HPC) 100 % of control | dose: 400.0 mg/kg/injection, schedule: Q04DX003 (ip), vehicle: Klucel (hydroxypropylcellulose) (HPC) 109 % of control

Cc1c2c(nn1-c1ccccn1)C(=O)C=C(Nc1ccccc1)C2=O
inactive: dose: 8.8 mg/kg/injection, schedule: Q01DX009 (ip), vehicle: carboxymethylcellulose (CMC) 91 % of control

Cc1ccc(C2(C(=O)O)CCCC2)cc1
inactive: dose: 65.0 mg/kg/injection, schedule: Q01DX009 (ip), vehicle: Klucel (hydroxypropylcellulose) (HPC) 103 % of control | dose: 150.0 mg/kg/injection, schedule: Q01DX009 (ip), vehicle: Klucel (hydroxypropylcellulose) (HPC) 94 % of control | [3] 91 % of control

[Cl][Pt+2]([Cl])([Cl])[Cl].[Na+].[S-]c1ncnc2nc[nH]c12.[S-]c1ncnc2nc[nH]c12
inactive: [1] 120 % of control | [2] 100 % of control | [4] 100 % of control | dose: 300.0 mg/kg/injection, schedule: Q01DX009 (ip), vehicle: saline with Tween-80 113 % of control | [5] 112 % of control | [6] 122 % of control

CCC(C)C(NC(=O)OCc1ccccc1)C(=O)NC(C(=O)NC(CCC(=O)OC(C)(C)C)C(=O)OC)C(C)C (stereo not drawn) (Cbz-Ile-Val-Glu(OtBu)-OMe; configuration not given here)
inactive: dose: 100.0 mg/kg/injection, schedule: Q04DX003 (ip), vehicle: saline sonified 90 % of control | dose: 200.0 mg/kg/injection, schedule: Q04DX003 (ip), vehicle: saline sonified 90 % of control | dose: 400.0 mg/kg/injection, schedule: Q04DX003 (ip), vehicle: saline sonified 95 % of control

O=CN(SSN(C=O)C1CCCCC1)C1CCCCC1
inactive: [7] 108 % of control and 116 % of control | [1] 122 % of control

CC[N+](C)(C)Cc1ccccc1
inactive: dose: 6.25 mg/kg/injection, schedule: Q01DX009 (ip), vehicle: saline 106 % of control | dose: 12.5 mg/kg/injection, schedule: Q01DX009 (ip), vehicle: saline 106 % of control

COC(=O)[C@@H](C)[C@@H](O)[C@@H](C)N
inactive: [2] 101 % of control | [4] 99 % of control | [6] 103 % of control

C=CCCCCCCCCC(=O)NCCCN1CCOCC1
inactive: dose: 25.0 mg/kg/injection, schedule: Q01DX009 (ip), vehicle: saline with Tween-80 100 % of control | [7] 109 % of control | [1] 100 % of control
